Measurements as given in US20180105492A1, “COMPOUNDS DERIVED FROM 3-ALKYLAMINE-1H-INDOLYL ACRYLATE AND THEIR USE IN THE TREATMENT OF NEURODEGENERATIVE DISEASES” (FUNDACION PARA LA INVESTIGACION BIOMEDICA DEL HOSPITAL …, priority 2014, published 2018).

What was measured:
[1] = system: Nrf2 transcription factor (Nrf2-ARE); experiment: Nrf2-ARE induction, luciferase activity in AREc32 (MCF7 cells stably transfected with ARE-LUC); assay type: cell-based; settings: Homo sapiens, 24 h, basal = 1, read-out: Relative Luciferase activity (response versus basal)
Method: For the study of Nrf2 transcription factor, the cellular line AREC32 was used, which is characterized for being stably transfected with the reporter gene of Luciferase linked to the ARE sequence. In the presence electrophilic compounds or oxidative stress, Nrf2 factor binds to ARE sequences, activating luciferase expression and producing a proportional quantity of luciferase. The AREc32 cells were cultured in DMEM media with glutamax, supplemented with 10% fetal bovine serum (FBS), 1% penicillin-streptomycin and 1.6% geneticine (G418) (obtained from GIBCO, Madrid, Spain). Cells were cultured in 75 cm flasks with 11 mL of specific media, incubated at 37° C. and 5% of CO2. Cells were passed every 4-6 days (1:4), whenever the confluence reached 80%. For the experiments, cells were cultured in transparent surface 96 well plates at a density of […] with 100 μL/well. After 24 h in culture, cells were treated with the compounds at different concentrations (1, 10, 30 and 60 μM) during 24 h at 37° C. and 5% CO2. In every experiment it was also included a basal variable, a variable with 10 μM tert-butyl hydroquinone (TBHQ) (positive control) and the variables of the study in a final volume of 100 μL. After an incubation of 24 h with the compounds, luciferase activity was measured by bioluminescence using the commercial kit “Luciferase assay system” (Promega E1500). For that, treatments were removed and cells were washed with 100 μL of PBS 0.1 M. After washing, 20 μL of “lysis buffer” reactive was added to each well. 10 minutes later, luminescence was measured using the multi-well reader FluoStar optima (BMG labtech).
Luminescence was measured in arbitrary units and is directly proportional to luciferase quantity in the wells, which is also directly proportional to Nrf2 transcription factor induction by the specific compound at the established concentration. Measurements were made in duplicate and values were normalized to the basal luminescence value, considered as 1.
The results of Nrf2 induction obtained for the compounds 1 to 16 are shown in Table 1 and are expressed as induction, considering 1 the non-treated cells.

[2] = system: Nrf2 transcription factor (Nrf2-ARE); experiment: as above; assay type: cell-based; settings: Homo sapiens, 24 h, basal = 1, read-out: Relative Luciferase activity (response versus basal); remark: listed apart in the source

Compound	fold induction at 10 µM ([1]; 10 μM)	fold induction at 30 µM ([1]; 30 μM)	fold induction at 60 µM ([1]; 60 μM)	fold induction at 1 µM ([1]; 1 μM)	fold induction at 3 µM ([2]; 3 μM)	fold induction at 6 µM ([2]; 6 μM)
CCOC(=O)C=Cc1ccccc1 [Ethyl Cinnamate, reference compound]	1.46 ± 0.1	1.4 ± 0.1	1.55 ± 0.1			
CC(C)(C)c1cc(O)ccc1O [TBHQ, tert-butyl hydroquinone]				2.19 ± 0.1	3.83 ± 0.3	6.1 ± 0.1
